Laboratory results reported in patent publication US9522886B2, “Pyridine derivatives” (Hoffmann-La Roche Inc., priority 2012, dated 2016).
pEC50: −log10 of the molar value. Like-named read-outs stand apart in the source and are kept apart here.

Key:
human CB1 receptors = human CB1 receptors (Homo sapiens (Human), UniProt P21554); test: cAMP assay, CHO cells expressing human CB1 receptors; assay type: cell-based
Description: (§1) CHO cells expressing human CB1 or CB2 receptors are seeded 17-24 hours prior to the experiment 50.000 cells per well in a black 96 well plate with flat clear bottom (Corning Costar #3904) in DMEM (Invitrogen No. 31331), 1×HT supplement, with 10% fetal calf serum and incubated at 5% CO2 and 37° C. in a humidified incubator. The growth medium was exchanged with Krebs Ringer Bicarbonate buffer with 1 mM IBMX and incubated at 30° C. for 30 min. Compounds were added to a final assay volume of 100 μl and incubated for 30 min at 30° C. Using the cAMP-Nano-TRF detection kit the assay (Roche Diagnostics) was stopped by the addition of 50 μl lysis reagent (Tris, NaCl, 1.5% Triton X100, 2.5% NP40, 10% NaN3) and 50 μl detection solutions (20 μM mAb Alexa700-cAMP 1:1, and 48 μM Ruthenium-2-AHA-cAMP) and shaken for 2 h at room temperature. The time-resolved energy transfer is measured by a TRF reader (Evotec Technologies GmbH), equipped with a ND:YAG laser as excitation source. The plate is measured twice with the excitation at 355 nm and at the emission with a delay of 100 ns and a gate of 100 ns, total exposure time 10 s at 730 (bandwidth 30 nm) or 645 nm (bandwidth 75 nm), respectively.
(§2) EC50 values were determined using Activity Base analysis (ID Business Solution, Limited).

human CB2 receptors = human CB2 receptors (Homo sapiens (Human), UniProt P34972); test: cAMP assay, CHO cells expressing human CB2 receptors; assay type: cell-based; conditions: functional cAMP assay, CHO cells expressing human CB2; read-out: human CB2 EC50
Description: as §1, §2

[1] = functional cAMP assay, CHO cells expressing human CB1, read-out: human CB1 EC50

Sequence of human CB2 receptors (P34972 whole entry): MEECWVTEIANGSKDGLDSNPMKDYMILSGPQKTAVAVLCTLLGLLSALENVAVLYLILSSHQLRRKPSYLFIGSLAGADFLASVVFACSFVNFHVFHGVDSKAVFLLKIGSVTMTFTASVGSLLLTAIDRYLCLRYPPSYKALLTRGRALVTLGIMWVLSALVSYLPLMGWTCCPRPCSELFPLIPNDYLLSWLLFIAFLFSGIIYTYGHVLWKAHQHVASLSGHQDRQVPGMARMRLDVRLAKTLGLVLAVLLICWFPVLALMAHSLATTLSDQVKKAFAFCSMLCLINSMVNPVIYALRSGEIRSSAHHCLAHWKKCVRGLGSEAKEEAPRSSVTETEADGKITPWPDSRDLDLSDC
Sequence of human CB1 receptors (P21554 whole entry): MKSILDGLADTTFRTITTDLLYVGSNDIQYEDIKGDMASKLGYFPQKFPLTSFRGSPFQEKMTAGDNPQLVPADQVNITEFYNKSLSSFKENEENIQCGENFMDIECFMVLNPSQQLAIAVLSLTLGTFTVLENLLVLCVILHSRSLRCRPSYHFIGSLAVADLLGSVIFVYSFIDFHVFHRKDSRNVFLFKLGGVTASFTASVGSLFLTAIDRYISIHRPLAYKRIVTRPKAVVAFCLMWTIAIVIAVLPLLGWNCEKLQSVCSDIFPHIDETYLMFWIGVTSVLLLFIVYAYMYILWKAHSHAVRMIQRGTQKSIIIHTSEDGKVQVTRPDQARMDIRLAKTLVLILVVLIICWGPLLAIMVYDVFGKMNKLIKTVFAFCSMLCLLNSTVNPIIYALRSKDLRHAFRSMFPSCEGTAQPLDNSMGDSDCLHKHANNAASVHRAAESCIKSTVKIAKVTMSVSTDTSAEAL

In the case of `NC(=O)[C@@H]1CCCC[C@@H]1NC(=O)c1ccc(C2CC2)c(OCC2CC2)n1` (relative stereo) [Example 12, 5-Cyclopropyl-6-cyclopropylmethoxy-pyridine-2-carboxylic acid (rel-(1S,2R)-2-carbamoyl-cyclohexyl)-amide], the pEC50 (human CB1 receptors) was < 5.00.
Compound `CCCCC(CC(N)=O)NC(=O)c1ccc(C2CC2)c(OCC2CC2)n1` (single isomer, unassigned; (+)) [Example 10, (+)-5-Cyclopropyl-6-cyclopropylmethoxy-pyridine-2-carboxylic acid (1-carbamoylmethyl-pentyl)-amide] has a pEC50 (human CB2 receptors) of 9.52.
In the case of `NC(=O)CC(NC(=O)c1ccc(C2CC2)c(OCC2CC2)n1)C1CCCCC1` (single isomer, unassigned; (+)) [Example 18, (+)-5-Cyclopropyl-6-cyclopropylmethoxy-pyridine-2-carboxylic acid (2-carbamoyl-1-cyclohexyl-ethyl)-amide], the pEC50 (human CB2 receptors) was 8.82 and the pEC50 (human CB1 receptors; [1]) was < 5.00.
`NC(=O)CC(NC(=O)c1ccc(C2CC2)c(OCC2CC2)n1)C1CC1` (single isomer, unassigned; (+)) [Example 28, (+)-5-Cyclopropyl-6-cyclopropylmethoxy-pyridine-2-carboxylic acid (2-carbamoyl-1-cyclopropyl-ethyl)-amide] was tested, and the pEC50 (human CB2 receptors) was 8.52 and the pEC50 (human CB1 receptors; [1]) was < 5.00.
In the case of `NC(=O)CC(NC(=O)c1ccc(C2CC2)c(OCC2CC2)n1)C(F)(F)F` (single isomer, unassigned; (+)) [Example 32, (+)-5-Cyclopropyl-6-cyclopropylmethoxy-pyridine-2-carboxylic acid (1-carbamoylmethyl-2,2,2-trifluoro-ethyl)-amide], the pEC50 (human CB2 receptors) was 6.86 and the pEC50 (human CB1 receptors; [1]) was < 5.00.
For `NC(=O)CC(NC(=O)c1ccc(N2CC(F)(F)C2)c(OCC2CC2)n1)C1CCOCC1` (single isomer, unassigned; (+)) [Example 59, (+)-6-Cyclopropylmethoxy-5-(3,3-difluoro-azetidin-1-yl)-pyridine-2-carboxylic acid [2-carbamoyl-1-(tetrahydro-pyran-4-yl)-ethyl]-amide], the pEC50 (human CB1 receptors; [1]) was < 5.00.
In the case of `CCCCC(CC(N)=O)NC(=O)c1ccc(C2CC2)c(OCC2CC2)n1` (single isomer, unassigned; (-)) [Example 9, (−)-5-Cyclopropyl-6-cyclopropylmethoxy-pyridine-2-carboxylic acid (1-carbamoylmethyl-pentyl)-amide], the pEC50 (human CB2 receptors) was 8.68.
`NC(=O)CC(NC(=O)c1ccc(C2CC2)c(OCC2CC2)n1)C1CCCCC1` (single isomer, unassigned; (-)) [Example 17, (−)-5-Cyclopropyl-6-cyclopropylmethoxy-pyridine-2-carboxylic acid (2-carbamoyl-1-cyclohexyl-ethyl)-amide] was tested, and the pEC50 (human CB2 receptors) was 8.21 and the pEC50 (human CB1 receptors; [1]) was < 5.00.
`NC(=O)CC(NC(=O)c1ccc(C2CC2)c(OCC2CC2)n1)C1CC1` (single isomer, unassigned; (-)) [Example 27, (−)-5-Cyclopropyl-6-cyclopropylmethoxy-pyridine-2-carboxylic acid (2-carbamoyl-1-cyclopropyl-ethyl)-amide] was tested, and the pEC50 (human CB2 receptors) was 8.85 and the pEC50 (human CB1 receptors; [1]) was < 5.00.
`NC(=O)CC(NC(=O)c1ccc(C2CC2)c(OCC2CC2)n1)C(F)(F)F` (single isomer, unassigned; (-)) [Example 31, (−)-5-Cyclopropyl-6-cyclopropylmethoxy-pyridine-2-carboxylic acid (1-carbamoylmethyl-2,2,2-trifluoro-ethyl)-amide] was tested, and the pEC50 (human CB2 receptors) was 8.06 and the pEC50 (human CB1 receptors; [1]) was < 5.00.
For `NC(=O)CC(NC(=O)c1ccc(C2CC2)c(OCC2CC2)n1)C1CCOCC1` (single isomer, unassigned; (-)) [Example 34, (−)-5-Cyclopropyl-6-cyclopropylmethoxy-pyridine-2-carboxylic acid [2-carbamoyl-1-(tetrahydro-pyran-4-yl)-ethyl]-amide], the pEC50 (human CB2 receptors) was 8.66 and the pEC50 (human CB1 receptors; [1]) was < 5.00.
For `NC(=O)CC(NC(=O)c1ccc(N2CC(F)(F)C2)c(OCC2CC2)n1)C1CCOCC1` (single isomer, unassigned; (-)) [Example 58, (−)-6-Cyclopropylmethoxy-5-(3,3-difluoro-azetidin-1-yl)-pyridine-2-carboxylic acid [2-carbamoyl-1-(tetrahydro-pyran-4-yl)-ethyl]-amide], the pEC50 (human CB1 receptors; [1]) was < 5.00.
`NC(=O)[C@@H]1CCCC[C@@H]1NC(=O)c1ccc(C2CC2)c(OCC2CC2)n1` (stereo in doubt) [Example 15, (+)-cis-5-Cyclopropyl-6-cyclopropylmethoxy-pyridine-2-carboxylic acid (2-carbamoyl-cyclohexyl)-amide] was tested, and the pEC50 (human CB1 receptors) was < 5.00.
Compound `NC(=O)[C@H]1CCCC[C@@H]1NC(=O)c1ccc(C2CC2)c(OCC2CC2)n1` (stereo in doubt) [Example 16, (−)-trans-5-Cyclopropyl-6-cyclopropylmethoxy-pyridine-2-carboxylic acid (2-carbamoyl-cyclohexyl)-amide] has a pEC50 (human CB1 receptors; [1]) of 6.77.
For `NC(=O)[C@@H]1CCCC[C@@H]1NC(=O)c1ccc(N2CC(F)(F)C2)c(OCC2CC2)n1` (stereo in doubt) [Example 20, (+)-cis-6-Cyclopropylmethoxy-5-(3,3-difluoro-azetidin-1-yl)-pyridine-2-carboxylic acid (2-carbamoyl-cyclohexyl)-amide], the pEC50 (human CB2 receptors) was 7.80 and the pEC50 (human CB1 receptors; [1]) was < 5.00.
In the case of `CCOC(=O)CC1(NC(=O)c2ccc(C3CC3)c(OCC3CC3)n2)COC1` [Example 1, {3-[(5-Cyclopropyl-6-cyclopropylmethoxy-pyridine-2-carbonyl)-amino]-oxetan-3-yl}-acetic acid ethyl ester], the pEC50 (human CB2 receptors) was 7.27 and the pEC50 (human CB1 receptors; [1]) was < 5.00.
With `CC(C)CC(CC(=O)OC(C)(C)C)NC(=O)c1ccc(N2CC(F)(F)C2)c(OCC2CC2)n1` (stereo not drawn) [Example 2, tert-Butyl 3-({[6-(cyclopropylmethoxy)-5-(3,3-difluoroazetidin-1-yl)pyridin-2-yl]carbonyl}amino)-5-methylhexanoate] the pEC50 (human CB2 receptors) was 6.17 and the pEC50 (human CB1 receptors; [1]) was < 5.00.
For `CN1CC(NC(=O)c2ccc(N3CC(F)(F)C3)c(OCC3CC3)n2)CC1=O` (stereo not drawn) [Example 3, 6-Cyclopropylmethoxy-5-(3,3-difluoro-azetidin-1-yl)-pyridine-2-carboxylic acid (1-methyl-5-oxo-pyrrolidin-3-yl)-amide], the pEC50 (human CB1 receptors; [1]) was < 5.00.
In the case of `CCOC(=O)CC(NC(=O)c1ccc(N2CC(F)(F)C2)c(OCC2CC2)n1)c1ccccc1` (stereo not drawn) [Example 4, 3-{[6-Cyclopropylmethoxy-5-(3,3-difluoro-azetidin-1-yl)-pyridine-2-carbonyl]-amino}-3-phenyl-propionic acid ethyl ester], the pEC50 (human CB2 receptors) was 8.38 and the pEC50 (human CB1 receptors; [1]) was < 5.00.
With `CCOC(=O)CC(C)(C)NC(=O)c1ccc(N2CC(F)(F)C2)c(OCC2CC2)n1` [Example 5, 3-{[6-Cyclopropylmethoxy-5-(3,3-difluoro-azetidin-1-yl)-pyridine-2-carbonyl]-amino}-3-methyl-butyric acid ethyl ester] the pEC50 (human CB2 receptors) was 6.29 and the pEC50 (human CB1 receptors; [1]) was < 5.00.
For `CNC(=O)CC(C)(C)NC(=O)c1ccc(N2CC(F)(F)C2)c(OCC2CC2)n1` [Example 6, 6-Cyclopropylmethoxy-5-(3,3-difluoro-azetidin-1-yl)-pyridine-2-carboxylic acid (1,1-dimethyl-2-methylcarbamoyl-ethyl)-amide], the pEC50 (human CB2 receptors) was 6.76 and the pEC50 (human CB1 receptors; [1]) was < 5.00.
For `CCCCCC(CC(=O)NC)NC(=O)c1ccc(N2CC(F)(F)C2)c(OCC2CC2)n1` (stereo not drawn) [Example 7, 6-Cyclopropylmethoxy-5-(3,3-difluoro-azetidin-1-yl)-pyridine-2-carboxylic acid (1-methylcarbamoylmethyl-hexyl)-amide], the pEC50 (human CB2 receptors) was 7.25 and the pEC50 (human CB1 receptors; [1]) was < 5.00.
With `CNC(=O)CC(CCc1ccccc1)NC(=O)c1ccc(N2CC(F)(F)C2)c(OCC2CC2)n1` (stereo not drawn) [Example 8, 6-Cyclopropylmethoxy-5-(3,3-difluoro-azetidin-1-yl)-pyridine-2-carboxylic acid (1-methylcarbamoylmethyl-3-phenyl-propyl)-amide] the pEC50 (human CB2 receptors) was 6.52 and the pEC50 (human CB1 receptors; [1]) was < 5.00.
`CC(C)[C@@H](CC(N)=O)NC(=O)c1ccc(C2CC2)c(OCC2CC2)n1` [Example 13, 5-Cyclopropyl-6-cyclopropylmethoxy-pyridine-2-carboxylic acid ((R)-1-carbamoylmethyl-2-methyl-propyl)-amide] gave a pEC50 (human CB2 receptors) of 8.30.
In the case of `CC(C)[C@H](CC(N)=O)NC(=O)c1ccc(C2CC2)c(OCC2CC2)n1` [Example 14, 5-Cyclopropyl-6-cyclopropylmethoxy-pyridine-2-carboxylic acid ((S)-1-carbamoylmethyl-2-methyl-propyl)-amide], the pEC50 (human CB2 receptors) was 8.82.
In the case of `NC(=O)CC(NC(=O)c1ccc(N2CC(F)(F)C2)c(OCC2CC2)n1)C1CCOCC1` (stereo not drawn) [Example 53, 6-Cyclopropylmethoxy-5-(3,3-difluoro-azetidin-1-yl)-pyridine-2-carboxylic acid [2-carbamoyl-1-(tetrahydro-pyran-4-yl)-ethyl]-amide], the pEC50 (human CB1 receptors; [1]) was < 5.00.
In the case of `NC(=O)CC1(NC(=O)c2ccc(N3CC(F)(F)C3)c(OCC3CC3)n2)CSC1` [Example 91, N-[3-(2-Amino-2-oxoethyl)thietan-3-yl]-6-(cyclopropylmethoxy)-5-(3,3-difluoroazetidin-1-yl)pyridine-2-carboxamide], the pEC50 (human CB1 receptors; [1]) was < 5.00.
